# Measured values: the NIST ThermoML archive (doi:10.1016/j.fluid.2018.09.024)
# Numbers after ± are expanded uncertainties.
# Test: activity coefficient (dimensionless); of the first substance listed, at infinite dilution; xn = mol fraction of the nth substance listed
# Details: 101.33 kPa, Liquid, Chromatography, x1 = 0
SMILES,activity coefficient (328.15 K),activity coefficient (338.15 K),activity coefficient (348.15 K),activity coefficient (358.15 K),activity coefficient (368.15 K),activity coefficient (378.15 K),activity coefficient (318.15 K)
CCC(C)(C)OC [2-methoxy-2-methylbutane] + CCCCCCCCCCCC[N+](C)(C)CCOc1ccccc1.N#C[N-]C#N,2.49 ± 0.17,2.56 ± 0.17,2.63 ± 0.18,2.69 ± 0.18,2.75 ± 0.19,2.81 ± 0.19,
CCC(C)(C)OC [2-methoxy-2-methylbutane] + CCCCCCCCCCCC[N+](C)(C)CCOc1ccccc1.O=S(=O)([N-]S(=O)(=O)C(F)(F)F)C(F)(F)F,1.29 ± 0.08,1.36 ± 0.09,1.43 ± 0.09,1.5 ± 0.1,1.56 ± 0.1,,1.22 ± 0.08
COC(C)(C)C [2-methoxy-2-methylpropane] + CCCCCCCCCCCC[N+](C)(C)CCOc1ccccc1.N#C[N-]C#N,2.28 ± 0.16,2.33 ± 0.16,2.38 ± 0.16,2.43 ± 0.17,2.48 ± 0.17,2.53 ± 0.17,
COC(C)(C)C [2-methoxy-2-methylpropane] + CCCCCCCCCCCC[N+](C)(C)CCOc1ccccc1.O=S(=O)([N-]S(=O)(=O)C(F)(F)F)C(F)(F)F,1.09 ± 0.07,1.15 ± 0.07,1.21 ± 0.08,1.27 ± 0.08,1.33 ± 0.09,,1.03 ± 0.06
CC(C)CO [2-methyl-1-propanol] + CCCCCCCCCCCC[N+](C)(C)CCOc1ccccc1.N#C[N-]C#N,0.451 ± 0.036,0.46 ± 0.036,0.469 ± 0.037,0.477 ± 0.037,0.486 ± 0.037,0.494 ± 0.038,
CC(C)CO [2-methyl-1-propanol] + CCCCCCCCCCCC[N+](C)(C)CCOc1ccccc1.O=S(=O)([N-]S(=O)(=O)C(F)(F)F)C(F)(F)F,1.33 ± 0.09,1.26 ± 0.08,1.21 ± 0.08,1.16 ± 0.07,1.12 ± 0.07,,1.4 ± 0.09
CC(C)(C)O [2-methylpropan-2-ol] + CCCCCCCCCCCC[N+](C)(C)CCOc1ccccc1.N#C[N-]C#N,0.539 ± 0.039,0.554 ± 0.04,0.569 ± 0.041,0.584 ± 0.041,0.598 ± 0.042,0.613 ± 0.043,
CC(C)(C)O [2-methylpropan-2-ol] + CCCCCCCCCCCC[N+](C)(C)CCOc1ccccc1.O=S(=O)([N-]S(=O)(=O)C(F)(F)F)C(F)(F)F,1.1 ± 0.07,1.06 ± 0.07,1.02 ± 0.06,0.986 ± 0.062,0.952 ± 0.06,,1.14 ± 0.07
CCC(C)CC [3-methylpentane] + CCCCCCCCCCCC[N+](C)(C)CCOc1ccccc1.N#C[N-]C#N,5.3 ± 0.36,5.37 ± 0.37,5.41 ± 0.37,5.46 ± 0.37,5.5 ± 0.37,5.5 ± 0.37,
CCC(C)CC [3-methylpentane] + CCCCCCCCCCCC[N+](C)(C)CCOc1ccccc1.O=S(=O)([N-]S(=O)(=O)C(F)(F)F)C(F)(F)F,2.81 ± 0.19,2.88 ± 0.2,2.95 ± 0.2,3.01 ± 0.2,3.07 ± 0.21,,2.74 ± 0.19
C=C(C)c1ccccc1 [(1-methylethenyl)benzene] + CCCCCCCCCCCC[N+](C)(C)CCOc1ccccc1.N#C[N-]C#N,1.11 ± 0.07,1.18 ± 0.08,1.25 ± 0.08,1.32 ± 0.09,1.39 ± 0.09,1.46 ± 0.1,
C=C(C)c1ccccc1 [(1-methylethenyl)benzene] + CCCCCCCCCCCC[N+](C)(C)CCOc1ccccc1.O=S(=O)([N-]S(=O)(=O)C(F)(F)F)C(F)(F)F,0.831 ± 0.054,0.881 ± 0.056,0.931 ± 0.059,0.985 ± 0.062,1.03 ± 0.06,,0.784 ± 0.051
CC(C)=O [acetone] + CCCCCCCCCCCC[N+](C)(C)CCOc1ccccc1.N#C[N-]C#N,0.721 ± 0.048,0.745 ± 0.049,0.767 ± 0.05,0.791 ± 0.051,0.813 ± 0.053,0.834 ± 0.054,
CC(C)=O [acetone] + CCCCCCCCCCCC[N+](C)(C)CCOc1ccccc1.O=S(=O)([N-]S(=O)(=O)C(F)(F)F)C(F)(F)F,0.353 ± 0.032,0.375 ± 0.033,0.398 ± 0.034,0.421 ± 0.035,0.445 ± 0.036,,0.331 ± 0.032
CC#N [acetonitrile] + CCCCCCCCCCCC[N+](C)(C)CCOc1ccccc1.N#C[N-]C#N,0.756 ± 0.05,0.766 ± 0.05,0.775 ± 0.051,0.785 ± 0.051,0.793 ± 0.052,0.801 ± 0.052,
